According to US20240325370A1, “THERAPEUTIC REGIMENS OF A DEGRADER OF BRD9” (FOGHORN THERAPEUTICS INC., priority 2021, published 2024):
One block for each molecule: values may come before it.

Key:
endogenous BRD9 = biological target: T1, endogenous BRD9 (Homo sapiens, UniProt Q9H8M2); assay: MSD assay of endogenous BRD9 degradation in synovial sarcoma cell lines; type: cell-based; conditions: 6 hours, estimated from racemate compound D1 (about 50% active enantiomer)
T1 sequence (Q9H8M2 1-597): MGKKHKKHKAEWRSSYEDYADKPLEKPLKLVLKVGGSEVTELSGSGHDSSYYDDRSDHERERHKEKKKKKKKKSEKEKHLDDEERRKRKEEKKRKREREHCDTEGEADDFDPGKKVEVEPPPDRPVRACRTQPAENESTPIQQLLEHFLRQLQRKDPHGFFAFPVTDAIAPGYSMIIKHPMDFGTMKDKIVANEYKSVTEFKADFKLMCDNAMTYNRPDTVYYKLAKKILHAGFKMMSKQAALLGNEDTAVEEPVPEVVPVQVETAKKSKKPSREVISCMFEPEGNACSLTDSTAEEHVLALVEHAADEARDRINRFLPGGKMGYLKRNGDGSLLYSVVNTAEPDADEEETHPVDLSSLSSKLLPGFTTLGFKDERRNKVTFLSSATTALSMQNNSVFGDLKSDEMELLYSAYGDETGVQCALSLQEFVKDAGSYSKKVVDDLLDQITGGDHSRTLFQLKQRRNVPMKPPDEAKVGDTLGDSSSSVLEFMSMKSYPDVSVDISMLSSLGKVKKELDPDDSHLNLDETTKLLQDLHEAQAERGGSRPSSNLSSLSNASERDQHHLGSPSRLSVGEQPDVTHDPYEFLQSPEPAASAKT

[1] = Interconversion between Enantiomer 1 and Enantiomer 2 in cell medium; type: physicochemical; conditions: Enantiomer 2 dosing, cell medium 37° C.; for Mean peak area ratio of Enantiomer 1 over Enantiomer 2 peak area ratio: 0.2 µM
Method: For the assessment of interconversion between Enantiomer 1 and Enantiomer 2 in cell medium, the following test was performed. […] At designated time point, aliquot (50 μL) was taken and processed by the addition of 150 μL of acetonitrile containing 0.1% formic acid and internal standard for LC/MS-MS analysis. Peak areas of both Enantiomer 1 and Enantiomer 2 were determined for each sample using a chiral specific analytical method.

[2] = test system: ASKA synovial sarcoma xenografts; assay: ASKA synovial sarcoma xenograft efficacy; type: in vivo; conditions: for Tumor Growth (%) on Day 21 / Tumor Size (mm^3) on Day 21: Mean ± SEM; for T/C (%) / TGI (%): Day 21
Method: A study was conducted to examine anti-tumor efficacy of compound S-D1 with BIW IV dosing of the racemate, compound D1, for 3 weeks utilizing a second xenograft model of human synovial sarcoma, ASKA. Vehicle (0.5% HPMC, 0.1% Tween 80 in water, pH 1.3 to 1.5), administered orally, was used as the general comparator for all test article responses (i.e., tumor growth and body weight changes). Pazopanib and ifosfamide, two agents currently used in clinic to treat synovial sarcoma patients were compared to compound D1 treatment alone. Pazopanib was administered orally at 40 mg/kg QD and ifosfamide was given IV at 80 mg/kg QD for the first 3 days (Days 0, 1, and 2) in the 3-week treatment period, mimicking the equivalent treatment regimens for both drugs in human patients.

BRD9 = biological target: T2, BRD9 (Homo sapiens, UniProt Q9H8M2); assay: Kinetic experiments of BRD9 degradation in synovial sarcoma cell lines; type: cell-based
T2 sequence (Q9H8M2 1-597): T1 sequence (Q9H8M2 1-597)
Method: Kinetic Experiments in Synovial Sarcoma Cell Lines. To assess the rate of BRD9 protein degradation following treatment with compound D1, this compound was administered at a steady dose of 15 nM over multiple time points in SYO-1 and ASKA synovial sarcoma cell lines. After cell treatment, BRD9 protein levels were determined by western blot analyses.
Cells grown in flasks to log phase growth were washed with PBS and dissociated by adding TrypLE™ Express. Two wells were allocated per sample. Plates were incubated at 37° C. with 5% CO2 overnight.
The next day, cells were treated with 15 nM compound D1, with the final DMSO content of 0.1% (v/v) matching the untreated control. After the designated incubation periods for each sample, as indicated in FIGS. 29A and 29B, cells were harvested, resuspended in PBS, and centrifuged at 5,000 rpm for 5 minutes. After being washed twice with PBS, the resulting cell pellets were stored at −80° C.
Cells were processed for western blot analysis as follows (see Table 15 for specific conditions). Cell lysates were prepared by resuspending thawed pellets in RIPA lysis buffer with protease and phosphatase inhibitors and DNA nuclease enzymes. […] Samples were then analysed for total protein using BCA protein quantitation assay following manufacturer's instructions. […]

[3] = 0.1 mg/kg BIW IV 3 weeks, ASKA xenograft
[4] = 0.5 mg/kg BIW IV 3 weeks, ASKA xenograft
[5] = 2 mg/kg BIW IV 3 weeks, ASKA xenograft
[6] = 0.5 or 2 mg/kg BIW IV, ASKA xenograft

- DC50 (endogenous BRD9): 0.025 to 0.1 nM
- Mean peak area ratio of Enantiomer 1 over Enantiomer 2 peak area ratio ([1]; 0 h): 0.01
- Mean peak area ratio of Enantiomer 1 over Enantiomer 2 peak area ratio ([1]; 0.5 h): 0.06
- Mean peak area ratio of Enantiomer 1 over Enantiomer 2 peak area ratio ([1]; 2 h): 0.22
- Mean peak area ratio of Enantiomer 1 over Enantiomer 2 peak area ratio ([1]; 6 h): 0.60
- % Enantiomer 2 ([1]; 0 h): 99%
- % Enantiomer 2 ([1]; 0.5 h): 95%
- % Enantiomer 2 ([1]; 2 h): 82%
- % Enantiomer 2 ([1]; 6 h): 63%
Structure (SMILES): COc1cc(-c2cn(C)c(=O)c3cnc(N4CCC4)cc23)cc(OC)c1CN1CCC(CN2CCC3(CC2)CN(c2ccc4c(c2)C(=O)N([C@H]2CCC(=O)NC2=O)C4)C3)CC1 (single isomer, unassigned) [Compound S-D1]

Structure (SMILES): COc1cc(-c2cn(C)c(=O)c3cnc(N4CCC4)cc23)cc(OC)c1CN1CCC(CN2CCC3(CC2)CN(c2ccc4c(c2)C(=O)N(C2CCC(=O)NC2=O)C4)C3)CC1 (racemic) [Compound D1, 3-[6-(7-[[1-([4-[6-(azetidin-1-yl)-2-methyl-1-oxo-2,7-naphthyridin-4-yl]-2,6-dimethoxyphenyl]methyl)piperidin-4-yl]methyl]-2,7-diazaspiro[3.5]nonan-2-yl)-1-oxo-3H-isoindol-2-yl]piperidine-2,6-dione]
- Tumor Growth (%) on Day 21 [2, 3]: 440 ± 46%
- Tumor Size (mm^3) on Day 21 [2, 3]: 634 ± 82 mm^3
- T/C (%) ([2]; 0.1 mg/kg BIW IV 3 weeks): 36.1%
- TGI (%) ([2]; 0.1 mg/kg BIW IV 3 weeks): 63.9%
- Tumor Growth (%) on Day 21 [2, 4]: 121 ± 13%
- Tumor Size (mm^3) on Day 21 [2, 4]: 175 ± 26 mm^3
- T/C (%) ([2]; 0.5 mg/kg BIW IV 3 weeks): 9.9%
- TGI (%) ([2]; 0.5 mg/kg BIW IV 3 weeks): 90.1%
- Tumor Growth (%) on Day 21 [2, 5]: 92 ± 6%
- Tumor Size (mm^3) on Day 21 [2, 5]: 130 ± 10 mm^3
- T/C (%) ([2]; 2 mg/kg BIW IV 3 weeks): 7.6%
- TGI (%) ([2]; 2 mg/kg BIW IV 3 weeks): 92.4%
- tumor response [2, 6]: Tumor stasis
- tumor stasis continued after the cessation of dosing [2, 6]: approximately 15 days
- BRD9 protein degradation (BRD9; ASKA cells, upon 30 minutes of treatment, 15 nM): nearly complete BRD9 protein degradation
- time of treatment to markedly deplete BRD9 protein (BRD9; SYO-1 cells, 100-fold of NanoLuc DC50 (15 nM)): ≤ 2 h
